How the values were obtained:
[1] = test system: prostate cancer C4-2B cells; experiment: Cell viability (Cell-Titer GLO), 4 days, prostate cancer cells; type: cell-based, human
Description: The “No.” label for each compound corresponds to the “Structure No.” in Table 2 (e.g., “No. 36”=“Structure No. 36” in Table 2). Experiments were independently performed three times.
(§1) For cell viability, cells were seeded in 96-well plates at 1500-2500 cells per well (optimum density for growth, depending on the specific cell line) in a total volume of 100 μl media. Serially diluted compounds in 100 μl of media were added to the cells 12 hours later. After 4 days of incubation, Cell-Titer GLO reagents (Promega) were added and luminescence was measured on GLOMAX microplate luminometer (Promega), according to the manufacturer's instructions. All experimental points were set up as sextuplicate as biological replication and the entire experiments were repeated three times. The data are presented as percentage of viable cells with vehicle treated cells set as 100. The estimated in vitro IC50 values were calculated using GraphPad Prism 6 software.

[2] = test system: HCC70 cells; experiment: Cell viability (CellTiter-GLO), 4 days, TNBC cells; type: cell-based, human
Description: (§2) The “No.” label for each compound corresponds to the “Structure No.” in Table 2 (e.g., “No. 36”=“Structure No. 36” in Table 2). The cell viability curves were measured by CellTiter-GLO.
as §1, with “growth)” for “growth, depending on the specific cell line)”

[3] = test system: MDA-MB468 cells; experiment: Cell viability (CellTiter-GLO), 4 days, TNBC cells; type: cell-based, human
Description: as §2
as §1, with “growth)” for “growth, depending on the specific cell line)”

[4] = test system: gastric cancer KATO III cells; experiment: Cell viability (Cell-Titer GLO), 4 days, gastric cancer cells; type: cell-based, human
Description: Experiments were independently performed three times.
as §1, with “100.” for “100. The estimated in vitro IC50 values were calculated using GraphPad Prism 6 software.”

[5] = test system: SUM159 orthotopic xenograft tumors; experiment: TNBC SUM159 orthotopic xenograft tumor growth in SCID mice; type: in vivo, mouse; details: 5 mg/kg, i.p., 5 times per week, 45 days
Description: Orthotopic xenograft tumor models and chemical compound treatments: Four-week-old female SCID C.B17 mice (for TNBC SUM159 cell lines) were purchased from Harlan Inc. For establishing tumors, 2×10^6 cells were suspended in total of 100 μL PBS/Matrigel (1:1) and implanted orthotopically into the 4th inguinal mammary fat pads at both sides. Animal group size of six or more was estimated to have a high statistical power, based on power calculation (www.biomath.info/pgwer/) and 20 previous studies involving the same xenograft models. When the tumor volume was approximately 50 mm^3, the mice were randomized and then treated intraperitoneally (i.p.) with 100 μl of vehicle or RORγ inhibitors F18/No. 37, 5 mg/kg; GSK805, 5 mg/kg; GNE3500, 5 mg/kg. (in a formulation of 15% Cremophor EL, Calbiochem, 82.5% PBS, and 2.5% DMSO) for five times per week. Tumor growth was monitored by calipers with volume calculated using the equation: π/6 (length×width^2). Mouse body weight during the course of the study was also monitored. At the end of the studies, mice were killed and tumors were dissected and weighed.

[6] = test system: MCF-7-TamR; experiment: Growth and survival of tamoxifen-resistant breast cancer cells; type: cell-based, human; details: MCF-7-TamR, 1 μM of 4(OH)-tamoxifen alone

O=C(Cc1ccc([N+](=O)[O-])cc1)Nc1ccc(-c2ccc(C(O)(C(F)(F)F)C(F)(F)F)cc2F)cc1 [F17, N-(2′-fluoro-4′-(1,1,1,3,3,3-hexafluoro-2-hydroxypropan-2-yl)-[1,1′-biphenyl]-4-yl)-2-(4-nitrophenyl)acetamide]
inhibition of growth and survival [1]: strongly inhibited the growth and survival | inhibition of growth and survival [2]: strongly inhibited the growth and survival | inhibition of growth and survival [3]: strongly inhibited the growth and survival

O=C(CCc1ccccc1)Nc1ccc(-c2ccc(C(O)(C(F)(F)F)C(F)(F)F)cc2F)cc1 [F62, N-(2′-fluoro-4′-(1,1,1,3,3,3-hexafluoro-2-hydroxypropan-2-yl)-[1,1′-biphenyl]-4-yl)-3-phenylpropanamide]
inhibition of growth and survival [1]: strongly inhibited the growth and survival | inhibition of growth and survival [2]: strongly inhibited the growth and survival | inhibition of growth and survival [3]: strongly inhibited the growth and survival

O=C(CCC(F)(F)F)Nc1ccc(-c2ccc(C(O)(C(F)(F)F)C(F)(F)F)cc2F)cc1 [F63, 4,4,4-trifluoro-N-(2′-fluoro-4′-(1,1,1,3,3,3-hexafluoro-2-hydroxypropan-2-yl)-[1,1′-biphenyl]-4-yl)butanamide]
inhibition of growth and survival [1]: strongly inhibited the growth and survival | inhibition of growth and survival [2]: strongly inhibited the growth and survival | inhibition of growth and survival [3]: strongly inhibited the growth and survival

CCCCCCC(=O)Nc1ccc(-c2ccc(C(O)(C(F)(F)F)C(F)(F)F)cc2F)cc1 [F64, N-(2′-fluoro-4′-(1,1,1,3,3,3-hexafluoro-2-hydroxypropan-2-yl)-[1,1′-biphenyl]-4-yl)heptanamide]
inhibition of growth and survival [1]: strongly inhibited the growth and survival | inhibition of growth and survival [2]: strongly inhibited the growth and survival | inhibition of growth and survival [3]: strongly inhibited the growth and survival

O=C(CCCC1CCCCC1)Nc1ccc(-c2ccc(C(O)(C(F)(F)F)C(F)(F)F)cc2F)cc1 [F65, 4-cyclohexyl-N-(2′-fluoro-4′-(1,1,1,3,3,3-hexafluoro-2-hydroxypropan-2-yl)-[1,1′-biphenyl]-4-yl)butanamide]
inhibition of growth and survival [1]: strongly inhibited the growth and survival | inhibition of growth and survival [2]: strongly inhibited the growth and survival | inhibition of growth and survival [3]: strongly inhibited the growth and survival

COC(=O)CCCC(=O)Nc1ccc(-c2ccc(C(O)(C(F)(F)F)C(F)(F)F)cc2F)cc1 [F68, Methyl-5-((2′-fluoro-4′-(1,1,1,3,3,3-hexafluoro-2-hydroxypropan-2-yl)-[1,1′-biphenyl]-4-yl)amino)-5-oxopentanoate]
inhibition of growth and survival [1]: strongly inhibited the growth and survival | inhibition of growth and survival [2]: strongly inhibited the growth and survival | inhibition of growth and survival [3]: strongly inhibited the growth and survival

CC(=O)N1CCN(c2ccc(CN3[C@@H](C)CC[C@H](c4ccccc4)S3(=O)=O)c(F)c2)CC1 [GNE3500]
inhibition of growth and survival [4]: strongly inhibited the growth and survival

CCS(=O)(=O)c1ccc(CC(=O)Nc2cc(Cl)c(-c3ccccc3OC(F)(F)F)c(Cl)c2)cc1 [GSK805, reference compound]
inhibition of growth and survival [4]: strongly inhibited the growth and survival | orthotopic tumor growth inhibition [5]: Strong tumor growth inhibition

OC(c1ccc(-c2ccc(CN3CCN(Cc4ccncc4)CC3)cc2)c(F)c1)(C(F)(F)F)C(F)(F)F [SR2211]
inhibition of growth and survival [4]: strongly inhibited the growth and survival

CC/C(=C(\c1ccccc1)c1ccc(OCCN(C)C)cc1)c1ccccc1 [tamoxifen, reference compound]
growth inhibitory effect, tamoxifen alone [6]: did not show any inhibitory effect
